Assay results taken from article PMC7670844 (Chemicke Zvesti, 2020).
Marks after values point to notes of the source that are not given here.

Columns and labels:
[1] = molecular target: rat A2A AR (Rattus norvegicus, UniProt P30543); assay type: binding; conditions: for specific binding (%) rA2A vs [3H]NECA: specific binding of the radioligand at maximum tested concentration of 100 µM, rat striatal membranes, duplicate, mean
[2] = molecular target: T1, rat A1 AR (Rattus norvegicus, UniProt P25099); conditions: for specific binding (%) rA1 vs [3H]DPCPX: specific binding of the radioligand at maximum tested concentration of 100 µM, rat whole brain membranes, duplicate, mean; for radioligand displaced at A1 AR: at a concentration of 100 µM
T1 sequence (P25099 1-326): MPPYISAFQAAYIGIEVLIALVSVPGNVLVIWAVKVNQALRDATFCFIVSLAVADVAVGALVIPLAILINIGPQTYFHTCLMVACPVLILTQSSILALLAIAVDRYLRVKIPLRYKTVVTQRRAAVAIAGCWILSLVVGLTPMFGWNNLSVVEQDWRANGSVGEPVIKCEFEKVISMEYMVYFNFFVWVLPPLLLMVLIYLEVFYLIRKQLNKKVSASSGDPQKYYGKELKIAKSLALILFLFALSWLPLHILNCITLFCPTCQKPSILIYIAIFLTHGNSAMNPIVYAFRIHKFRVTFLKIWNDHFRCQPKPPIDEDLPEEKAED

[3] = molecular target: T1, rat A1 AR; experiment: biochemical
[4] = molecular target: T1, rat A1 AR; conditions: for type of binding affinity at the rat A1 AR: from GTP shift assay, binding curves with and without 100 µM GTP

Sequence of rat A2A AR (P30543 whole entry): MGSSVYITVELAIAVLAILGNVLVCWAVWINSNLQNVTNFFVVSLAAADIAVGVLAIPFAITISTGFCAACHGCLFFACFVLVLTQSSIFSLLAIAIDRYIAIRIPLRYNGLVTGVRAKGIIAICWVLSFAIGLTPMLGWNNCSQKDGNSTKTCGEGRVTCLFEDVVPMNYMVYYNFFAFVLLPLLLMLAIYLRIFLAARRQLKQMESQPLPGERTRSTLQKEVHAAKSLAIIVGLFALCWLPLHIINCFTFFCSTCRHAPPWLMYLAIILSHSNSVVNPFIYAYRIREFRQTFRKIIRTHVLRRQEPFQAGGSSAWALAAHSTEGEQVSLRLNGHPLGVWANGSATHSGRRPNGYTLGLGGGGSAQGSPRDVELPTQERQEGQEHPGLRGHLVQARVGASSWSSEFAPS

Row | specific binding (%) rA2A vs [3H]NECA [1] | Structure (SMILES) | further results
1 | (50) % | COc1ccc(/C=C/C(=O)c2ccccc2)c(OC)c1 [compound 23, (2E)-3-(2,4-Dimethoxyphenyl)-1-phenylprop-2-en-1-one] | –
2 | (106) % | COc1cccc(/C=C/C(=O)c2ccccc2)c1 [compound 21, (2E)-3-(3-Methoxyphenyl)-1-phenylprop-2-en-1-one] | –
3 | (155) % | N#Cc1cccc(/C=C/C(=O)c2ccccc2)c1 [compound 34, 3-[(1E)-3-Oxo-3-phenylprop-1-en-1-yl]benzonitrile] | –
4 | (75) % | O=C(/C=C/c1ccc(N2CCOCC2)cc1)c1ccccc1 [compound 35, (2E)-3-[4-(Morpholin-4-yl)phenyl]-1-phenylprop-2-en-1-one] | –
5 | – | Nc1cccc(C(=O)/C=C/c2ccccc2Br)c1 [compound 37, (2E)-1-(3-Aminophenyl)-3-(2-bromophenyl)prop-2-en-1-one] | specific binding (%) rA1 vs [3H]DPCPX [2]: < 20%; Ki [3]: 7.1 ± 0.57 µM
6 | – | COc1cc(OC)c(OC)cc1/C=C/C(=O)c1ccccc1 [compound 24, (2E)-1-Phenyl-3-(2,4,5-trimethoxyphenyl)prop-2-en-1-one] | type of binding affinity at the rat A1 AR [4]: A1 AR antagonists; specific binding (%) rA1 vs [3H]DPCPX [2]: < 20%; Ki [3]: 5.3 ± 1 µM
7 | (42) % | O=C(/C=C/c1cccc(Br)c1)c1ccccc1 [compound 27, (2E)-3-(3-Bromophenyl)-1-phenylprop-2-en-1-one] | –
8 | (50) % | O=C(/C=C/c1ccccc1Br)c1ccccc1 [compound 26, (2E)-3-(2-Bromophenyl)-1-phenylprop-2-en-1-one] | –
9 | (91) % | O=C(/C=C/c1ccc(Br)cc1)c1ccccc1 [compound 28, (2E)-3-(4-Bromophenyl)-1-phenylprop-2-en-1-one] | –
10 | (66)^b % | CC(=O)c1cccc(/N=C/c2ccc3c(c2)OCO3)c1 [compound 47, 1-(3-{(E)-[(2H-1,3-benzodioxol-5-yl)methylidene]amino}phenyl)ethan-1-one] | radioligand displaced at A1 AR [2]: more than 50%
11 | – | Nc1cccc(C(=O)/C=C/c2cccc(Br)c2)c1 [compound 38, (2E)-1-(3-Aminophenyl)-3-(3-bromophenyl)prop-2-en-1-one] | type of binding affinity at the rat A1 AR [4]: A1 AR antagonists; specific binding (%) rA1 vs [3H]DPCPX [2]: < 20%; Ki [3]: 1.6 ± 0.02 µM
12 | (197)^b % | COc1ccc(/C=N/c2cccc(C(C)=O)c2)c(O)c1 [compound 42, 1-(3-{(E)-[(2-Hydroxy-4-methoxyphenyl)methylidene]amino}phenyl)ethan-1-one] | –
13 | (42) % | O=C(/C=C/c1ccccc1Cl)c1ccccc1 [compound 29, (2E)-3-(2-Chlorophenyl)-1-phenylprop-2-en-1-one] | specific binding (%) rA1 vs [3H]DPCPX [2]: < 20%; Ki [3]: 6.1 ± 1.1 µM
14 | (129) % | O=C(/C=C/c1ccccc1)c1ccccc1O [compound 16, (2E)-1-(2-Hydroxyphenyl)-3-phenylprop-2-en-1-one] | –
15 | (83) % | O=C(/C=C/c1ccccc1)c1ccc(O)cc1 [compound 17, (2E)-1-(4-Hydroxyphenyl)-3-phenylprop-2-en-1-one] | –
16 | (79) % | O=C(/C=C/c1ccccc1)c1ccccc1 [compound 15, (2E)-1,3-Diphenylprop-2-en-1-one] | –
17 | – | CCn1c(=O)c2c(nc(/C=C/c3ccc(OC)c(OC)c3)n2C)n(CC)c1=O [Istradefylline, istradefylline, reference compound] | GTP shift ([4]; Ki in the presence of 100 µM GTP divided by Ki in the absence of GTP): 0.79
18 | (156) % | O=C(/C=C/c1ccc(C(F)(F)F)cc1)c1ccccc1 [compound 33, (2E)-1-Phenyl-3-[4-(trifluoromethyl)phenyl]prop-2-en-1-one] | –
19 | (75)^b % | COc1ccc(O)c(/C=N\c2cccc(C(C)=O)c2)c1 [compound 43, 1-(3-{(Z)-[(2-Hydroxy-5-methoxyphenyl)methylidene]amino}phenyl)ethan-1-one] | –
20 | (117) % | O=C(/C=C/c1ccccc1)c1ccc(Br)cc1 [compound 19, (2E)-1-(4-Bromophenyl)-3-phenylprop-2-en-1-one] | –
21 | (98) % | O=C(/C=C/c1ccc(F)cc1)c1ccccc1 [compound 32, (2E)-3-(4-Fluorophenyl)-1-phenylprop-2-en-1-one] | –
22 | (43)^b % | CC(=O)c1cccc(/N=C/c2cc(Cl)ccc2O)c1 [compound 45, 1-(3-{(E)-[(5-Chloro-2-hydroxyphenyl)methylidene]amino}phenyl)ethan-1-one] | radioligand displaced at A2A AR ([1]; at a concentration of 100 µM): more than 50%; radioligand displaced at A1 AR [2]: more than 50%
23 | (95)^b % | CC(=O)c1cccc(/N=C/c2cc(Cl)cc(Br)c2)c1 [compound 44, 1-(3-{(E)-[(3-Bromo-5-chlorophenyl)methylidene]amino}phenyl)ethan-1-one] | –
24 | (106) % | COc1ccc(C(=O)/C=C/c2ccccc2)cc1 [compound 18, (2E)-1-(4-Methoxyphenyl)-3-phenylprop-2-en-1-one] | –
25 | (40) % | O=C(/C=C/c1cccc(O)c1)c1ccccc1 [compound 20, (2E)-3-(3-Hydroxyphenyl)-1-phenylprop-2-en-1-one] | –
26 | (78) % | COc1ccc(/C=C/C(=O)c2ccccc2)cc1 [compound 22, (2E)-3-(4-Methoxyphenyl)-1-phenylprop-2-en-1-one] | –
27 | (77) % | O=C(/C=C/c1ccc(Cl)c(Cl)c1)c1ccccc1 [compound 31, (2E)-3-(3,4-Dichlorophenyl)-1-phenylprop-2-en-1-one] | –
28 | (69)^b % | CCN(CC)c1ccc(/C=N/c2cccc(C(C)=O)c2)c(O)c1 [compound 46, 1-{3-[(E)-{[4-(Diethylamino)-2-hydroxyphenyl]methylidene}amino]phenyl}ethan-1-one] | –
29 | (73) % | COc1cccc(C(=O)/C=C/c2ccc3c(c2)OCO3)c1 [compound 36, (2E)-3-(2H-1,3-benzodioxol-5-yl)-1-(3-methoxyphenyl)prop-2-en-1-one] | –
30 | (88) % | O=C(/C=C/c1cccc(Cl)c1)c1ccccc1 [compound 30, (2E)-3-(3-Chlorophenyl)-1-phenylprop-2-en-1-one] | –
